In article PMC6131501, “Urate transporter inhibitor lesinurad is a selective peroxisome proliferator-activated receptor gamma modulator (sPPARγM) in vitro” (Scientific Reports, 2018):

Legend:
[1] = design: method as in PMID 27716403, PMID 26951201; conditions: cited from earlier work
PPARγ = target: T1, PPARγ (Homo sapiens, UniProt P37231); assay: Gal4 hybrid reporter gene assay PPARγ; type: cell-based
T1 construct: expressed in transfected cells; host or cells: HEK293T
T1 sequence (P37231 238-503 limits assumed): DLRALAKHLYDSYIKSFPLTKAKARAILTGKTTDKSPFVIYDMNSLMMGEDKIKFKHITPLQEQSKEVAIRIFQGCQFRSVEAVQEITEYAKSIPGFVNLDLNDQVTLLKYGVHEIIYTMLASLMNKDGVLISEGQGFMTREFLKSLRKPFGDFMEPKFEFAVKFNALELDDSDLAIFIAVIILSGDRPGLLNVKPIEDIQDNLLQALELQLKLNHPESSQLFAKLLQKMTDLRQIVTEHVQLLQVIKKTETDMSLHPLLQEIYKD
Source text: (§1) These in vitro test systems are based on a constitutively expressed hybrid receptor composed of the ligand binding domain of the respective human nuclear receptor and the DNA binding domain of the yeast receptor Gal4. A Gal4-inducible firefly luciferase serves as reporter gene and a constitutively expressed renilla luciferase is used for normalization of transfection efficacy and internal toxicity control[18],[19]. […] The Gal4-fusion receptor plasmids pFA-CMV-hPPARα-LBD[50], pFA-CMV-hPPARγ-LBD[50], pFA-CMV-hPPARδ-LBD[50], pFA-CMV-hLXRα-LBD[51], pFA-CMV-hLXRβ-LBD[51], pFA-CMV-hRXRα-LBD[52], pFA-CMV-hRXRβ-LBD[52], pFA-CMV-hRXRγ-LBD[52], pFA-CMV-hRARα-LBD[52], pFA-CMV-hRARβ-LBD[52], pFA-CMV-hRARγ-LBD[52], pFA-CMV-hFXR-LBD[53], pFA-CMV-hVDR-LBD[52], pFA-CMV-hCAR-LBD[52] and pFA-CMV-hPXR-LBD[52] coding for the hinge region and ligand binding domain (LBD) of the canonical isoform of the respective nuclear receptor have been reported previously. pFR-Luc (Stratagene) was used as reporter plasmid and pRL-SV40 (Promega) for normalization of transfection efficiency and cell growth.
HEK293T cells were grown in DMEM high glucose, supplemented with 10% FCS, sodium pyruvate (1 mM), penicillin (100 U/mL) and streptomycin (100 μg/mL) at 37 °C and 5% CO2. The day before transfection, HEK293T cells were seeded in 96-well plates (3·10^4 cells/well). Before transfection, medium was changed to Opti-MEM without supplements. Transient transfection was carried out using Lipofectamine LTX reagent (Invitrogen) according to the manufacturer’s protocol with pFR-Luc (Stratagene), pRL-SV40 (Promega) and the corresponding Gal4-fusion nuclear receptor plasmid. 5 h after transfection, medium was changed to Opti-MEM supplemented with penicillin (100 U/mL), streptomycin (100 μg/mL), now additionally containing 0.1% DMSO and the respective test compound or 0.1% DMSO alone as untreated control. Each concentration was tested in duplicates and each experiment was repeated independently at least three times. Following overnight (12-14 h) incubation with the test compounds, cells were assayed for luciferase activity using Dual-Glo™ Luciferase Assay System (Promega) according to the manufacturer’s protocol. Luminescence was measured with an Infinite M200 luminometer (Tecan Deutschland GmbH). […] Fold activation was obtained by dividing the mean RLU of a test compound at a respective concentration by the mean RLU of untreated control.

[2] = system: PPARγ-regulated genes in HepG2 cells; assay: PPARγ target gene quantification in HepG2 cells (qPCR); type: cell-based, human; conditions: HepG2, 30 μM, 8 h; mean ± SEM, n = 4
Description: HepG2 cells were incubated with 1 (30 μM) or 0.1% DMSO as untreated control for 8 h, harvested, washed with cold phosphate-buffered saline (PBS) and then directly used for RNA extraction. 2 μg total RNA were extracted from HepG2 cells by the Total RNA Mini Kit (R6834-02, Omega Bio-Tek, Inc., Norcross, GA, USA). RNA was reverse-transcribed into cDNA using the High-Capacity cDNA Reverse Transcription Kit (4368814, Thermo Fischer Scientific, Inc.) according to the manufacturer’s protocol. PPARγ target gene expression was evaluated by quantitative real time PCR analysis with a StepOnePlus™ System (Life Technologies, Carlsbad, CA, USA) using Power SYBR Green (Life Technologies; 12.5 μL per well). Each sample was set up in duplicates and repeated in four independent experiments. The expression was quantified by the comparative ∆∆Ct method and glycerinaldehyde 3-phosphate dehydrogenase (GAPDH) served as reference gene. The following PCR primers were used: Adiponectin: 5′-TGGCTATGCTCACAGTCTCACATC-3′ (fwd) and 5′-CTCTGTGCCTCTGGTTCCACAA-3′ (rev); ANGPTL4: 5′-ATTCTTTCCAGCGGCTTCTG-3′ (fwd) and 5′-GAG GAC TGG AGA CGC GGA G-3′ (rev); CD36: 5′-GGC TGT GAC CGG AAC TGT G-3′ (fwd) and 5′-AGGTCTCCAACTGGCATTAGAA-3′ (rev); GAPDH: 5′-ATATGATTCCACCCATGGCA-3′ (fwd) and 5′-GATGATGACCCTTTTGGCTC-3′ (rev).
Results (expressed as mean ± SEM % relative mRNA expression to vehicle (0.1% DMSO); n = 4): Adiponectin: 1 (30 μM): 163 ± 41%; ANGPTL4: 1 (30 μM): 298 ± 49%; CD36: 1 (30 μM): 105 ± 16%.

[3] = target: pregnane X receptor (PXR) (Homo sapiens, UniProt O75469); assay: Gal4 hybrid reporter gene assay PXR
Source text: as §1
HEK293T cells were grown in DMEM high glucose, supplemented with 10% FCS, sodium pyruvate (1 mM), penicillin (100 U/mL) and streptomycin (100 μg/mL) at 37 °C and 5% CO2. […] Luminescence was measured with an Infinite M200 luminometer (Tecan Deutschland GmbH). […]

Sequence of pregnane X receptor (PXR) (O75469 146-433 limits assumed): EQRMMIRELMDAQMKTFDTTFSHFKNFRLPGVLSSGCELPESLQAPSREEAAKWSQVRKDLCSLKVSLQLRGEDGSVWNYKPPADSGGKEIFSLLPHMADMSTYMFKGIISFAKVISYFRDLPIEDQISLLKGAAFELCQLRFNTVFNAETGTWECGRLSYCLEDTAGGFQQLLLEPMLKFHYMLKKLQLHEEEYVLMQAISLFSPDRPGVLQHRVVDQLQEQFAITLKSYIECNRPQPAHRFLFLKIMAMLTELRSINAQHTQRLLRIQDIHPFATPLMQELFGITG

Compound: O=C(O)CSc1nnc(Br)n1-c1ccc(C2CC2)c2ccccc12 [lesinurad]
- plasma protein binding [1]: 98%
- Gal4-PPARγ transactivation (PPARγ; 30 μM): robustly transactivated
- EC50 (PPARγ; Gal4 hybrid reporter, HEK293T, 12-14 h, mean ± SEM, at least three experiments): 18.5 ± 0.7 µM
- ANGPTL4 relative mRNA expression to vehicle [2]: 298 ± 49%
- Adiponectin relative mRNA expression to vehicle [2]: 163 ± 41%
- CD36 relative mRNA expression to vehicle [2]: 105 ± 16%
- EC50 [3]: 19 ± 1 µM
- PXR transactivation efficacy ([3]; vs. 1 µM SR12813): 145 ± 9%
